Measured values reported in the supplement of paper PMC10307832.

Compound: O=C(Nc1cccc(C(F)(F)F)c1)Nc1cc(S(=O)(=O)NC2CC2)ccc1-c1ccsc1 [AGI-6780]
Assay: relative viability (nuclei count vs DMSO), 5 days (fraction); higher = more cells survive
Procedure, shortened: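 On vehicle-anchored 1536-well plates, lung cancer cell lines held overnight at 37 °C were pinned with five library-drug doses (not always all listed) spaced by √10. With no medium change over 5 days, they were then fixed, permeabilised and Hoechst-stained in one step and imaged at 4×. MetaXpress counted nuclei, and viability is the median across plates of treated-well over vehicle-well nuclei. Acceptance needed control CV below 25% and at least one doubling.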

Row | Cell Line | relative viability (0.08 µM) | relative viability (0.253 µM) | relative viability (0.8 µM) | relative viability (2.53 µM) | relative viability (8 µM)
1 | NCI-H661 | 1 | 1 | 1.08 | 0.876 | 0.947
2 | NCI-H727 | 0.988 | 0.902 | 1.26 | 0.885 | 0.987
3 | NCI-H838 | 0.984 | 0.996 | 0.995 | 0.83 | 0.957
4 | NCI-H1299 | 1 | 0.98 | 0.955 | 1.04 | 1.01
5 | NCI-H1355 | 1.02 | 1.07 | 1.03 | 0.823 | 1
6 | NCI-H1395 | 0.928 | 1 | 1.09 | 0.768 | 0.97
7 | NCI-H1437 | 0.943 | 1 | 1.04 | 1 | 0.997
8 | NCI-H1563 | 0.999 | 1.02 | 0.949 | 0.87 | 0.98
9 | NCI-H1648 | 0.735 | 0.999 | 0.983 | 0.942 | 1.08
10 | NCI-H1650 | 0.942 | 0.915 | 1.2 | 0.995 | 0.976
11 | NCI-H1651 | 1.03 | 1.04 | 0.957 | 0.921 | 1.02
12 | NCI-H1666 | 1 | 0.974 | 0.981 | 0.843 | 1.06
13 | NCI-H1703 | 0.949 | 0.84 | 1.02 | 0.823 | 0.807
14 | NCI-H1734 | 0.945 | 1.07 | 1 | 0.692 | 1.06
15 | NCI-H1755 | 1.02 | 0.983 | 0.964 | 0.915 | 1
16 | NCI-H1792 | 0.856 | 1.22 | 0.946 | 0.727 | 0.986
17 | NCI-H1793 | 1.19 | 1.08 | 1.03 | 0.768 | 0.897
18 | NCI-H1915 | 1.02 | 0.995 | 1.01 | 0.994 | 1.05
19 | NCI-H1944 | 1.02 | 0.975 | 1.02 |  | 1.06
20 | NCI-H1975 | 0.94 | 1.08 | 0.918 | 0.873 | 0.921

Row | Cell Line | relative viability (0.08 µM) | relative viability (0.253 µM) | relative viability (0.8 µM) | relative viability (2.53 µM) | relative viability (8 µM)
21 | NCI-H1993 | 1.01 | 1.07 | 1.19 | 0.677 | 0.971
22 | NCI-H2009 | 0.968 | 1.03 | 0.94 | 1.1 | 1.05
23 | NCI-H2023 | 0.969 | 0.978 | 1.03 | 0.882 | 1.03
24 | NCI-H2085 | 1.02 | 1 | 1.05 | 1.07 | 0.993
25 | NCI-H2087 | 1.03 | 1.18 | 1.12 | 1.01 | 1.12
26 | NCI-H2126 | 1.06 | 1.07 | 0.981 | 0.796 | 1.08
27 | NCI-H2170 | 0.988 | 1 | 0.909 |  | 0.975
28 | NCI-H2228 | 0.972 | 1.08 | 0.913 | 0.846 | 1.15
29 | NCI-H2342 | 0.984 | 1.01 | 1.15 | 0.848 | 1.2
30 | NCI-H2347 | 1.07 | 1.02 | 0.743 | 1.06 | 1.07
31 | NCI-H2405 | 0.995 | 1 | 0.842 | 0.923 | 1.01
32 | NCI-H3122 | 1 | 1.03 | 1.04 | 1.02 | 1.07
33 | PC-3 [JPC-3] | 0.982 | 1.04 | 1.08 | 1.08 | 0.962
34 | PC-14 | 1.02 | 1.01 | 1.05 | 1.02 | 1.04
35 | RERF-LC-KJ | 1.05 | 1.06 | 0.977 | 0.798 | 0.951
36 | SK-LU-1 | 1.05 | 1.04 | 0.777 | 0.945 | 1.19
37 | SK-MES-1 | 1.04 | 1.03 | 0.99 | 0.958 | 0.99
38 | SW 900 | 0.858 | 0.868 | 1.08 | 0.901 | 0.935
39 | SW 1573 | 1.03 | 1.02 | 1.04 | 0.739 | 0.957
40 | UMC-11 | 0.95 | 0.955 | 1.2 |  | 1.13
